Data from US9643957B2, “Heterocyclic compounds having cholesterol 24-hydroxylase activity” (TAKEDA PHARMACEUTICAL COMPANY LIMITED, priority 2012, dated 2017).

Experiments:
human CH24H = biological target: T1, human CH24H (Homo sapiens, UniProt Q9Y6A2); assay: Measurement of CH24H inhibitory activity (24-HC produced from [14C] cholesterol by human CH24H lysate); type: biochemical; details: 1 μM test compound, [14C] cholesterol 15 μM, 37° C. for 5 hr, read-out: Inhibitory Rate in 1 μM (%)
T1 construct: Using Full-Length Mammalian Gene Collection No. 4819975 (Invitrogen) as a template; made in house; host or cells: FreeStyle 293-F cells, transient transfection with pcDNA3.1(+)/hCH24H; lysate supernatant, not purified
In short: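 Human CH24H lysate from FreeStyle 293 cells was incubated with compound and 15 μM [14C]cholesterol in 50 mM potassium phosphate pH 7.4 with 0.1% BSA, for 5 h at 37 °C. The 24-HC formed was extracted, separated by silica TLC and quantified by radioactivity. % inhibition was calculated versus no-compound reactions.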

24-HC in the brain = assay: Quantification test of 24-HC in mouse brain after repeated oral administration; type: in vivo; details: 30 mg/kg orally once a day for 3 days, female C57BL/6N mice, brain 24-HC at 16 hours after the third administration, relative to control group, read-out: Decreasing Rate in 30 mg/kg (%)
Method: Animals used were 6-week-old female C57BL/6N mice (3 mice/group). A test compound was suspended in a 0.5% aqueous methylcellulose [133-14255 WAKO] solution (1 mg/mL). The body weight of the mice was measured, and the solution was forcibly administered orally and repeatedly once a day for 3 days. At 16 hours after the third administration, half of the brain was harvested, and the amount of 24-HC was measured.
The wet weight of the brain was measured, and the brain was homogenized with 4-fold amount of saline. This solution was used as a brain extract. The 24-HC in the brain extract was extracted with an acetonitrile solution (98% acetonitrile, 1.98% methanol, 0.02% formic acid), and quantified by HPLC. The average value of 24-HC amount was calculated and the results are shown in relative values with the control group as 100%.

T1 sequence (Q9Y6A2 whole entry): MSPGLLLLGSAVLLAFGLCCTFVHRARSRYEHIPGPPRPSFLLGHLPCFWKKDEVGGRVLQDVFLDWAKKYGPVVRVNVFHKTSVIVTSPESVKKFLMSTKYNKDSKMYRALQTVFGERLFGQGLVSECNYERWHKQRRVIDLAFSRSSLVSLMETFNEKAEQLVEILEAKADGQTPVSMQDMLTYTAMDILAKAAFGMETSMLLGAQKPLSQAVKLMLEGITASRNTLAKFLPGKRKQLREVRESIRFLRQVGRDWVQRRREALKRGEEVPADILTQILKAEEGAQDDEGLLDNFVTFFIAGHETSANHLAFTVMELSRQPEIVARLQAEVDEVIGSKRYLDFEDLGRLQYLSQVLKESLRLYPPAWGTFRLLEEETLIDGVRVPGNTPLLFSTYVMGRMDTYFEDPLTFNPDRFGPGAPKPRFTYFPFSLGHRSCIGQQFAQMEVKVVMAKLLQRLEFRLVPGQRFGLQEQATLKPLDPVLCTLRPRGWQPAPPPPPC

| inhibition at 1 µM (human CH24H) [%] | SMILES | inhibition in vivo at 30 mg/kg (24-HC in the brain) [%] |
| --- | --- | --- |
| 96 | N#C[C@H]1CCCN1C(=O)C1CCN(c2cnccc2-n2cc(Cl)cn2)CC1 [Example 33, (2R)-1-((1-(4-(4-chloro-1H-pyrazol-1-yl)pyridin-3-yl)piperidin-4-yl)carbonyl)pyrrolidine-2-carbonitrile] | 49 |
| 81 | Cc1cnn(-c2ccncc2N2CCC(C(=O)N3CCC[C@@H]3C(N)=O)CC2)c1 [Example 124, 1-((1-(4-(4-methyl-1H-pyrazol-1-yl)pyridin-3-yl)piperidin-4-yl)carbonyl)-D-prolinamide] | 59 |
| 79 | Cc1cnn(-c2ccncc2N2CCC(C(=O)N3CCC[C@]3(C)C#N)CC2)c1 [Example 127, (2R)-2-methyl-1-((1-(4-(4-methyl-1H-pyrazol-1-yl)pyridin-3-yl)piperidin-4-yl)carbonyl)pyrrolidine-2-carbonitrile] | 44 |
| 93 | Cc1cnn(-c2ccncc2N2CCC(C(=O)N3CC(F)(F)C[C@@H]3C#N)CC2)c1 [Example 130, (2R)-4,4-difluoro-1-((1-(4-(4-methyl-1H-pyrazol-1-yl)pyridin-3-yl)piperidin-4-yl)carbonyl)pyrrolidine-2-carbonitrile] | 54 |

Continued, compound first:

| SMILES | inhibition at 1 µM (human CH24H) [%] | inhibition in vivo at 30 mg/kg (24-HC in the brain) [%] |
| --- | --- | --- |
| Cc1cnc(-c2ccncc2N2CCC(C(=O)N3CCC[C@@H]3C#N)CC2)s1 [Example 129, (2R)-1-((1-(4-(5-methyl-1,3-thiazol-2-yl)pyridin-3-yl)piperidin-4-yl)carbonyl)pyrrolidine-2-carbonitrile] | 82 | 44 |
| Cc1nnc(-c2ccncc2N2CCC(C(=O)N3CC(F)(F)C[C@@H]3C#N)CC2)s1 [Example 132, (2R)-4,4-difluoro-1-((1-(4-(5-methyl-1,3,4-thiadiazol-2-yl)pyridin-3-yl)piperidin-4-yl)carbonyl)pyrrolidine-2-carbonitrile] | 87 | 65 |
| COC[C@H]1CCCN1C(=O)C1CCN(c2cnccc2-c2nnc(C)s2)CC1 [Example 133, ((2R)-2-(methoxymethyl)pyrrolidin-1-yl)(1-(4-(5-methyl-1,3,4-thiadiazol-2-yl)pyridin-3-yl)piperidin-4-yl)methanone] | 87 | 70 |
| N#C[C@H]1CCCN1C(=O)C1CCN(c2cnccc2-c2ccccn2)CC1 [Example 142, (2R)-1-((1-(2,4′-bipyridine-3′-yl)piperidin-4-yl)carbonyl)pyrrolidine-2-carbonitrile] | 93 | 69 |
| O=C(C1CCN(c2cnccc2-n2cc(Br)cn2)CC1)N1CC(F)C1 [Example 319, (1-(4-(4-bromo-1H-pyrazol-1-yl)pyridin-3-yl)piperidin-4-yl) (3-fluoroazetidin-1-yl)methanone] | 96 | – |
| O=C(C1CCN(c2cnccc2-n2cc(C3CC3)cn2)CC1)N1CC[C@H](F)C1 [Example 322, (1-(4-(4-cyclopropyl-1H-pyrazol-1-yl)pyridin-3-yl)piperidin-4-yl)((3S)-3-fluoropyrrolidin-1-yl)methanone] | 93 | – |
| O=C(C1CCN(c2cnccc2-n2cc(C3CC3)cn2)CC1)N1CC(F)C1 [Example 323, (1-(4-(4-cyclopropyl-1H-pyrazol-1-yl)pyridin-3-yl)piperidin-4-yl)(3-fluoroazetidin-1-yl)methanone] | 93 | – |
